Measurements published in patent publication US20260374739A1, “SMALL MOLECULAR WEIGHT CHEMICAL COMPOUND TO ANTAGONIZE EPH-EPHRIN TETRAMERIZATION AND INHIBIT BIDIRECTIONAL SIGNALING” (THE BOARD OF REGENTS OF THE UNIVERSITY OF TEXAS SYSTEM, priority 2022, published 2026).
Several values for one entry are separate records, joined by “and”; a condition that tells them apart may be missing. Equal values may be shown once. Entries after “also recorded” stand apart in the source; their conditions may differ. Read-outs that look alike come from different tables or passages of the source.

Key:
EphB1-EphrinB2 = molecular target: T1, EphB1-EphrinB2 (Rattus norvegicus, UniProt P09759); test: Octet RED384, immobilized rat EphB1-Fc binding to 30 nM mouse EB2-His (400 sec / 500 sec); parameters: species or system mouse EphrinB2
T1 construct: rat EphB1-Fc residues 18-538; mouse EB2-His residues 18-232; purchased R&D Systems (EphB1-Fc); Sino Biologicals (EB2-His)
T1 sequence (P09759 18-538): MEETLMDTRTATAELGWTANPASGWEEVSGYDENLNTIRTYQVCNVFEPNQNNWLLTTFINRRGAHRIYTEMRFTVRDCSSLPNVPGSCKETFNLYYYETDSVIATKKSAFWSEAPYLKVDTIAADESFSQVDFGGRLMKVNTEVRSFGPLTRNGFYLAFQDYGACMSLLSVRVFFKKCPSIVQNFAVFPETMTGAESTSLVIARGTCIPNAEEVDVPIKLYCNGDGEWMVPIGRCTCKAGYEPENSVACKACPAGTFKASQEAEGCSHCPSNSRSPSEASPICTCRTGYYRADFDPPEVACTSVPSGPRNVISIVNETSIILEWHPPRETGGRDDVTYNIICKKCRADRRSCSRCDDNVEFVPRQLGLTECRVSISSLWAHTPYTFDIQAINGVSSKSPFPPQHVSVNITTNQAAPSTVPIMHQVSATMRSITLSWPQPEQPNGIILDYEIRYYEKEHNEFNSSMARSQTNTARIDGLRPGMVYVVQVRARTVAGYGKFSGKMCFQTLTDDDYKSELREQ
Procedure: FIGS. 9A-9B depict Octet RED384 kinetic analysis sensorgram data of 30 nM soluble mouse EphrinB2 (mEB2-His) protein binding to sensorchip immobilized rat EphB1-Fc (FIG. 9A) or mouse EphB4-Fc (FIG. 9B) protein and effect of increased concentration of A20. Association time was for 400 sec and dissociation time was for 500 sec. Binding assays were conducted in PBS containing 0.05% Tween-20 and 1% DMSO.
The experiments described above involve measurements following long-term incubation of proteins with compound and thus represent information after interaction homeostasis has been achieved (FIG. 5A, FIG. 5B, FIG. 5C, and FIG. 5D) or after complexes are extensively washed (ELISAs and pulldowns, FIG. 8). To further analyze biophysical activity of A20 in real-time, kinetic studies were performed using an Octet® RED384 system to visualize the effect of compound on EphB1-EB2 protein-protein binding dynamics. In these experiments, EphB1-Fc ectodomain protein was first sparsely immobilized onto a set of Octet biosensors, […], 1, 10, or 100 μM A20 for a 400 sec association step followed by exposure to buffer only for a 500 sec dissociation step. […] The sensorgram provides various data of the binding kinetics, such as on rates (kon), off rates (koff), and equilibrium dissociation constant (KD). […] Specifically, EphB2 forms a dimer with EphrinB2, and that two dimers then assemble together into a circular tetramer structure (see FIG. 10 and Himanen J P, Rajashankar K R, Lackmann M, Cowan C A, Henkemeyer M, and Nikolov DB. (2001). Crystal structure of an Eph receptor-ephrin complex. Nature 414:933-8, which is incorporated herein by reference in its entirety).
The distinct dimerization and tetramerization interfaces are indicated. Circular tetramers further cluster together to pack in the crystal via additional ligand-ligand (red arrow) and receptor-receptor (blue arrow) interfaces. Many studies by multiple groups show the circular tetramer and tetramer clusters are observed in vivo and that they are needed in order to form the active complex necessary for the transduction of Eph-Ephrin bidirectional signals. […] A variety of methods can be used to compare the different sensorgrams obtained from a dose-dependent run of a drug compound to quantify its LA activity and obtain IC50 information. Single time points in the assay can be picked and response signals obtained at the different compound doses can be compared, such as at 380 sec near the end of the association step or at 100 sec after start of the dissociation step.
Antagonists are classified as either competitive/reversible or irreversible, depending on how the particular inhibitor interacts with its protein targets. A reversible antagonist will bind receptor protein via non-covalent intermolecular forces, and it will eventually dissociate from the receptor, freeing the protein to bind either another antagonist chemical in the solution or its bona-fide ligand protein. […] A competitive antagonist is thought to bind to receptor protein at the same binding site/interface as the endogenous ligand (aka Ephrin), but without activating the receptor. Ligand and antagonist will thus compete for the same binding site on the receptor; when antagonist is bound to receptor it will prevent ligand binding and increasing concentrations of an antagonist will displace in a dose-dependent fashion the ability of ligand from binding the receptor. Since, most receptor antagonists participate in a reversible, non-covalent, competitive type of interaction, two Octet experiments were conducted to determine if this was indeed the mode of action of A20. To determine if A20 is a reversible inhibitor/antagonist, rEphB1-Fc was first immobilized onto sensor chips, then pre-exposed to 100 μM A20, then washed to remove A20, and after baseline measurements then tested for binding to 30 nM soluble mEB2-His protein. […]

EphB4-EphrinB2 = molecular target: T2, EphB4-EphrinB2 (Mus musculus, UniProt P54761); test: Octet RED384, immobilized mouse EphB4-Fc binding to mouse EB2-His
T2 construct: biosensor immobilized rodent EphB1-Fc and EphB4-Fc ectodomain proteins; mouse EB2-His residues 18-232; purchased R&D Systems (EphB-Fc); Sino Biologicals (EphrinB-His)
T2 sequence (P54761 16-539 limits assumed): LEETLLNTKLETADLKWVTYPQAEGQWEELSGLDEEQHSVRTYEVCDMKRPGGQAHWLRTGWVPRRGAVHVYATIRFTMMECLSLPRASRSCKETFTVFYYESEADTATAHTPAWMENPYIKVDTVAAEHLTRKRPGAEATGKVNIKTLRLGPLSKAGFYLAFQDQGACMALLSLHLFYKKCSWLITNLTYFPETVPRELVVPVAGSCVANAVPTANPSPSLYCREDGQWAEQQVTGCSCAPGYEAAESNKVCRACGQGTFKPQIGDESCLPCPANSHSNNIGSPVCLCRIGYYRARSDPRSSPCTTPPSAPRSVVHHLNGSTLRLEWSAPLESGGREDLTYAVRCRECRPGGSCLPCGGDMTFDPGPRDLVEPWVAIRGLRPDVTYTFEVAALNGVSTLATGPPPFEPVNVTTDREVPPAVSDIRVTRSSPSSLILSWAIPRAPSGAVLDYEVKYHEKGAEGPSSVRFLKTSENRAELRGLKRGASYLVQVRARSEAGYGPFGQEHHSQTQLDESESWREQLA
Procedure: […] Association time was for 400 sec and dissociation time was for 500 sec. Binding assays were conducted in PBS containing 0.05% Tween-20 and 1% DMSO.

[1] = Relative Dissociation IC50, rEphB1-mEphrinB2, immobilized rat EphB1, 50 nM soluble mouse EphrinB2, dissociation, relative
[2] = rEphB1-mEphrinB2, immobilized rat EphB1, 50 nM soluble mouse EphrinB2, association, absolute, read-out: Absolute Association IC50
[3] = rEphB1-mEphrinB2, immobilized rat EphB1, 50 nM soluble mouse EphrinB2, association, relative, read-out: Relative Association IC50
[4] = rEphB1-mEphrinB2, immobilized rat EphB1, 50 nM soluble mouse EphrinB2, dissociation, absolute, read-out: Absolute Dissociation IC50
[5] = mEphB4-mEphrinB2, immobilized mouse EphB4, 50 nM soluble mouse EphrinB2, association, absolute, read-out: Absolute Association IC50
[6] = mEphB4-mEphrinB2, immobilized mouse EphB4, 50 nM soluble mouse EphrinB2, association, relative, read-out: Relative Association IC50
[7] = mEphB4-mEphrinB2, immobilized mouse EphB4, 50 nM soluble mouse EphrinB2, dissociation, absolute, read-out: Absolute Dissociation IC50
[8] = Absolute Dissociation IC50, rEphB1-mEphrinB2, immobilized rat EphB1, 50 nM soluble mouse EphrinB2, dissociation, absolute
[9] = mEphB4-mEphrinB2, immobilized mouse EphB4, 50 nM soluble mouse EphrinB2, dissociation, relative, read-out: Relative Dissociation IC50
[10] = EphB1-EB2, AUC, read-out: IC50 (area under the curve)

| Compound | IC50 (EphB1-EphrinB2; [1]) [nM] | IC50 (EphB1-EphrinB2; [2]) | IC50 (EphB1-EphrinB2; [3]) | IC50 (EphB1-EphrinB2; [4]) | IC50 (EphB4-EphrinB2; [5]) | IC50 (EphB4-EphrinB2; [6]) | IC50 (EphB4-EphrinB2; [7]) | IC50 (EphB1-EphrinB2; [8]) [nM] | IC50 (EphB4-EphrinB2; [9]) [nM] | IC50 (EphB1-EphrinB2; [10]) [nM] | mode of antagonism (EphB1-EphrinB2; reversibility 100 μM pre-exposure, competition 0.1-1000 nM EB2, listed as A20) | IC50 (EphB4-EphrinB2; EphB4-EB2, read-out: area under the curve IC50) [nM] | IC50 (EphB1-EphrinB2; 100 sec dissociation, read-out: IC50 (response at 100 sec after dissociation step)) [nM] | IC50 (EphB1-EphrinB2; 380 sec association, read-out: IC50 (response at 380 sec after association)) [nM] | antagonist activity of salt vs free-base (EphB1-EphrinB2; fold better than free-base) | IC50 (EphB1-EphrinB2; rEphB1-mEphrinB2, immobilized rat EphB1, 50 nM soluble mouse EphrinB2, dissociation, relative, read-out: Relative Dissociation IC50) |
| --- | --- | --- | --- | --- | --- | --- | --- | --- | --- | --- | --- | --- | --- | --- | --- | --- |
| Oc1ccc(CN2CCOCC2)c2cccnc12 [Compound 1, 5-(morpholinomethyl)quinolin-8-ol] | 3290 | 100000 nM | 100000 nM | 100000 nM | 100000 nM | 100000 nM | 100000 nM | – | – | – | – | – | – | – | – | – |
| Oc1c(Cl)cc(CN2CCOCC2)c2cccnc12 [Compound 4, 4-((7-chloro-8-hydroxyquinolin-1-ium-5-yl)methyl)morpholin-4-ium chloride] | 640 | 14200 nM | 930 nM | – | > 10000 nM | 3190 nM | 840 nM | 830 | 530 | – | – | – | – | – | – | – |
| Oc1c(Br)cc(CN2CCOCC2)c2cccnc12 [Compound 5, 7-bromo-5-(morpholinomethyl)quinolin-8-ol] | – | – | – | – | – | – | – | – | – | 9330 | compound acts as a reversible inhibitor; also recorded: compound is a competitive inhibitor of EphB1-EB2 binding | > 100000 | – | – | – | – |
| Oc1c(Br)cc(CN2CCOCC2)c2cccnc12 [Compound 6, 4-((7-bromo-8-hydroxyquinolin-1-ium-5-yl)methyl)morpholin-4-ium chloride] | – | 28400 nM | 740 nM | – | 100000 nM | 220 nM | 410 nM | – | 220 | 3630 | – | – | 2400 | 3090 | 2-3 fold | – |
| Oc1c(I)cc(CN2CCOCC2)c2cccnc12 [Compound 8, 4-((8-hydroxy-7-iodoquinolin-1-ium-5-yl)methyl)morpholin-4-ium chloride] | – | > 1600 nM and 100000 nM | 280 nM and 530 nM | 710 nM and 510 nM | > 1600 nM and 100000 nM | 510 nM and 340 nM | 650 nM and 680 nM | – | 530 | – | – | – | – | – | – | 510 nM and 450 nM |
| O=[N+]([O-])c1cc(CN2CCOCC2)c2cccnc2c1O [Compound 10, 4-((8-hydroxy-7-nitroquinolin-1-ium-5-yl)methyl)morpholin-4-ium chloride] | 1990 | 99000 nM | 5390 nM | – | 100000 nM | 6380 nM | 2630 nM | 2480 | 2380 | – | – | – | – | – | – | – |
| O=S1(=O)CCN(Cc2ccc(O)c3ncccc23)CC1 [Compound 15, 4-((8-hydroxyquinolin-1-ium-5-yl)methyl)thiomorpholin-4-ium 1,1-dioxide chloride] | 900 | 100000 nM | 100000 nM | – | 100000 nM | > 10000 nM | 13200 nM | – | 630 | – | – | – | – | – | – | – |
| Oc1ccc(CN2CCN(Cc3ccc(C(F)(F)F)cc3)CC2)c2cccnc12 [Compound 48, 5-((4-(4-(trifluoromethyl)benzyl)piperazin-1-yl)methyl)quinolin-8-ol] | 2370 | 100000 nM | > 10000 nM | – | – | 8240 nM | – | 15100 | 1890 | – | – | – | – | – | – | – |
